In brackets after ≈: the same amount, converted by molar mass. Like-named read-outs stand apart in the source and are kept apart here.
Tests used:
[1] = biological target: T1, full length recombinant LepB from E. coli (Escherichia coli, UniProt P00803); assay: LepB kinetic enzyme assay (fluorogenic peptide substrate); format: biochemical
T1 construct: 500 pM full length recombinant LepB from E. coli
Method: A 20 μL reaction in PBS (pH 7.4) containing 0.1% Triton X-100 was initiated by adding 500 pM full length recombinant LepB from E. coli to a 384-well polypropylene assay plate (Thermo Scientific) containing indicated concentration of G0775 and 10 uM fluorogenic peptide substrate Dabcyl-DAP-PAKAAE-Edans (SEQ ID NO: 6) (GL Biochem, Boston, Mass.). Substrate cleavage separates the Dabcyl quencher from the Edans fluorophore, resulting in 490 nm fluorescence (340 nm excitation). The reaction was read kinetically using a pherastar plate reader (BMG Labtech), and curves were fit to a 2-step irreversible binding model using Dynafit software (BioKin Ltd.) to determine Kinact/KI binding constants.

[2] = system: E. coli K-12 MG1655 and isogenic matched strains; assay: MIC against E. coli K-12 MG1655 and isogenic matched strains; format: cell-based; details: for MIC: Escherichia coli
Method: (§1) Minimum Inhibitory Concentration (MIC). MICs were determined by performing two-fold serial dilutions of compound in Mueller Hinton II cation-adjusted broth to a final volume of 0.1 m1 in round-bottom 96-well assay plates (Corning Life Sciences No 3788). Each well was inoculated with 5×10^5 CFU/ml and incubated at 37° C. without agitation for 18 hours. Plates were scored by eye, and the lowest compound concentration preventing visible growth was determined to be the MIC.

[3] = system: 49 multidrug resistant clinical isolates of E. coli and K. pneumoniae; assay: MIC against CDC challenge panel of 49 multidrug resistant clinical isolates; format: cell-based; details: CDC challenge set
Method: To better assess the ability of G0775 to circumvent specific resistance mechanisms, a single MDR isolate, CDC 0106, was focused on. […] Chromosomal mutations associated with high level quinolone resistance and polymyxin resistance were also identified (FIGS. 10A-10B). Importantly, the elements encoded by CDC 0106 confer resistance to nearly all available antibiotic classes (Table 2).
as §1

A. baumannii ATCC 17978 = assay: Frequency of resistance (FOR); format: cell-based; details: G0775 at 8-fold the MIC; limit of detection 10^−10
Method: (§2) 20 independent colonies from each bacterial species were scraped and used to establish an overnight culture. Bacteria were concentrated by centrifugation, and approximately 3×10^9 CFUs were spread on cation adjusted Mueller Hinton agarose (MHA) plates containing G0775 at 2- to 8-times the MIC. The MHA plates were prepared from Mueller Hinton II cation adjusted broth (BBL™ 212322) and SeaKem LE Agarose (17 g/L; Lonza) as per manufactures instructions. Resistance frequency for each strain was calculated by dividing the number of colonies formed after a 48 hour incubation at 37° C. by the initial viable cell count.

E. coli ATCC 25922 [4] = assay: Frequency of resistance (FOR); format: cell-based; details: G0775 at 8-fold the MIC; limit of detection 10^−10
Method: as §2

K. pneumoniae 43816 = assay: Frequency of resistance (FOR); format: cell-based; details: G0775 at 8-fold the MIC; limit of detection 10^−10
Method: as §2

P. aeruginosa PAO1 = assay: Frequency of resistance (FOR); format: cell-based; details: further 2-fold increase over 8-fold the MIC (16-fold MIC)
Method: as §2

K. pneumoniae (CDC 0106) = assay: Neutropenic lung infection model in mice; format: in vivo; details: 20 h
Method: Balb/c mice (Jackson Laboratories) were rendered neutropenic by 2 intraperitoneal injections of Cytoxan (Baxter Health Care Corporation) at 150 mg/kg on Day −4 and 100 mg/kg on Day −1. On day 0, mice were infected intranasally with 40 ul log-phase grown K. pneumoniae (CDC 0106) at 1×10^6 CFU/mouse. At 2 and 11 hours post infection, G0775 was given at different doses subcutaneously. Ciprofloxacin (Claris Lifesciences Inc.) was dosed at 80 mg/kg subcutaneously once at 2 hour post infection. At 20 hours post infection, CFU was determined in the lung through serial dilutions.

[5] = system: K. pneumoniae strain ATCC 43816; assay: Mucin peritonitis survival study in mice; format: in vivo; details: 5 mg/kg BID subcutaneously on day of infection; out to 84 hours
Method: CD1 mice (Charles River Laboratories) were infected through intraperitoneal injection of 0.4 mL K. pneumoniae (ATCC 43816) at 3×10^5 CFU/mouse in 5% mucin (Sigma M1778). At 2 and 11 hours post infection, G0775 was given at the indicated dose subcutaneously. Ciprofloxacin (Claris Lifesciences Inc.) was dosed at 80 mg/kg subcutaneously once at 2 hour post infection. Mice were monitored for body conditioning and survival until 84 hours post infection.

[6] = system: E. coli ATCC 25922 point mutants; assay: MIC against spontaneous G0775-resistant point mutants; format: cell-based
Method: as §1, §2

E. coli ATCC 25922 [7] = assay: Time-kill; format: cell-based; details: E. coli ATCC 25922, across a 24 hour period
From the text: FIG. 5. […] Colony forming units (CFU) per mL data shown is an average of at least three independent experiments with error bars representing the SD.

Cc1nc(-c2ccc(C(C)(C)C)cc2)ncc1C(=O)NC(CCN)C(=O)N(C)C1C(=O)NC(C)C(=O)NC(C(=O)NCC#N)Cc2ccc(OCCN)c(c2)-c2cc1ccc2OCCN (centres unmarked) [G0775]
kinact/KI ([1]; full-length LepB embedded in a detergent micelle): 1.59e+06 M⁻¹ s⁻¹ | Ki ([1]; full-length LepB embedded in a detergent micelle, read-out: KI (prechemistry binding)): 0.44 nM | kinact ([1]; read-out: kinact (irreversible inactivation)): 0.0007 s⁻¹ | kinact ([1]; three independent experiments, read-out: Kinact): 0.0007 ± 0.0002 s⁻¹ | MIC ([2]; MG1655, read-out: G0775 MIC, MG 1655 - LepB High, increase LepB expression level): 1 µg/mL (≈ 1.12 µM) | MIC ([2]; MG1655, read-out: G0775 MIC, MG 1655 - LepB Low, reduced LepB expression level): 0.008 µg/mL (≈ 0.00899 µM) | MIC ([2]; MG1655, read-out: G0775 MIC, MG 1655 LptD4213 (imp), outer-membrane permeable): 0.004 µg/mL (≈ 0.00449 µM) | MIC ([2]; MG1655, read-out: G0775 MIC, MG1655 WT): 0.125 µg/mL (≈ 0.14 µM) | MIC ([2]; MG1655, read-out: G0775 MIC, MG1655 WT + 4 mM EDTA, outer-membrane permeable): 0.004 µg/mL | MIC ([2]; MG1655, read-out: G0775 MIC, MG1655 WT + 1% surfactant, lung inactivation): 0.125 µg/mL | MIC ([2]; MG1655, read-out: G0775 MIC, MG1655 WT + 50% serum, plasma protein binding): 0.125 µg/mL | MIC ([2]; MG1655, read-out: G0775 MIC, MG 1655 ΔacrB, efflux null): 0.125 µg/mL (≈ 0.14 µM) | MIC ([2]; MG1655, read-out: G0775 MIC, MG 1655 ΔompC, ΔompF, doubly porin deficient): 0.125 µg/mL (≈ 0.14 µM) | MIC ([2]; MG1655, read-out: G0775 MIC, MG 1655 ΔompC, porin deficient): 0.125 µg/mL (≈ 0.14 µM) | MIC ([2]; MG1655, read-out: G0775 MIC, MG 1655 ΔompF, porin deficient): 0.125 µg/mL (≈ 0.14 µM) | MIC ([2]; MG1655, read-out: G0775 MIC, MG 1655 ΔtolC, efflux null): 0.125 µg/mL (≈ 0.14 µM) | increase in potency relative to wild type E. coli ([2]; hyper-permeable E. coli strain (imp4213)): 30 fold | increase in MIC values ([2]; over-expression of LepB in E. coli K12 MG1655): 8 fold | decrease in MIC values ([2]; under-expression of LepB in E. coli K12 MG1655): 16 fold | activity against panel of 49 multidrug resistant clinical isolates (MIC) [3]: maintains its potent activity against all 49 isolates | frequency of resistance (FOR) (A. baumannii ATCC 17978): below the limit of detection | frequency of resistance (FOR) (E. coli ATCC 25922 [4]): below the limit of detection | frequency of resistance (FOR) (K. pneumoniae 43816): below the limit of detection | frequency of resistance (FOR) (P. aeruginosa PAO1): < 10^−10 | antibacterial activity in lung infection model (K. pneumoniae (CDC 0106); 2 mg/kg subcutaneously BID): bacteriostatic activity | antibacterial activity in lung infection model (K. pneumoniae (CDC 0106); 20 mg/kg subcutaneously BID): bactericidal activity | survival (animal viability) [5]: full animal viability | Fold MIC Increase ([6]; LepB mutation A297V): 4 Fold | Fold MIC Increase ([6]; LepB mutation D143Y): 8 Fold | Fold MIC Increase ([6]; LepB mutation E83K): 16 Fold | Fold MIC Increase ([6]; LepB mutation F85S): 8 Fold | Fold MIC Increase ([6]; LepB mutation L142R): 8 Fold | Fold MIC Increase ([6]; LepB mutation P88L): 16 Fold | Fold MIC Increase ([6]; LepB mutation P88Q): 4 Fold | Fold MIC Increase ([6]; LepB mutation P88R): 16 Fold | Fold MIC Increase ([6]; LepB mutation P88T): 4 Fold | Fold MIC Increase ([6]; LepB mutation V133F): 16 Fold | Fold MIC Increase ([6]; LepB mutation V149(VVGLP)): 128 Fold | Fold MIC Increase ([6]; mutation AcrB (N282Y), off-target): 4 Fold | reduction of susceptibility to G0775 by resistance mutations ([6]; resistant E. coli mutants): 4- to 16 fold | reduction of the number of viable bacteria (time-dependent killing) (E. coli ATCC 25922 [7]): over 6 orders of magnitude

From patent publication US20200262869A1, “PEPTIDE ANTIBIOTIC COMPLEXES AND METHODS OF USE THEREOF” (GENENTECH, INC., priority 2017, published 2020)
